In general, melting point refers to the temperature, or range, at which the solid turns liquid. As a reminder, the IC50 is the midpoint of a concentration-inhibition curve.

Drawing on US9884806B2, “Cyclic vinylogous amides as bromodomain inhibitors” (ICAHN SCHOOL OF MEDICINE AT MOUNT SINAI, priority 2013, dated 2018), this text covers melting point and IC50 for 38 compounds.

Data set [1] addresses T1, first bromodomain (BrD1) of human BRD4 (Homo sapiens, UniProt O60885).
T1 construct: the first bromodomain (BrD1) of human BRD4; poly-His (cleaved yes); made in house
The data set is described as follows: Fluorescence anisotropy binding assay (competition with FITC-labeled MS417 probe). The following applies: FITC-MS417 probe 80 nM, PBS pH 7.4, 1 hour, 25° C., read-out: BRD4_1 IC50. In outline:
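Competitive fluorescence anisotropy in PBS pH 7.4: 80 nM FITC-MS417 probe, 0.25 to 1 μM tag-cleaved BrD1, titrated unlabeled ligand, 1 hour at 25° C. IC50 values were fitted and converted to Ki using a corrected Cheng-Prusoff equation assuming one-site competition.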

The target in data set [2] is T2, BRD4_2 (Homo sapiens, UniProt O60885).
T2 construct: contains two tandem bromodomains (BrD1 and BrD2)
The data set is described as follows: Fluorescence anisotropy binding assay (competition with FITC-labeled MS417 probe), BRD4_2. The following applies: FITC-MS417 probe 80 nM, PBS pH 7.4, 1 hour, 25° C. A general note: Polarisation of emitted light reports the rotation of a fluorescent probe.

Some results are limits rather than exact numbers.

The compound `CC1=C(Nc2cc(Cl)c(C(=O)O)cc2Cl)CCC1=O` displayed a melting point of 229 to 232 °C.

In turn, `CC1=C(Nc2cc(C(=O)O)ccc2C(F)(F)F)CCCC1=O` showed a melting point of 209 to 212 °C. `CC1=C(NC2(C(F)(F)F)C=CC(C(=O)O)=CC2)CCCC1=O` (stereo not drawn) gave a melting point of 229 to 231 °C. The same measure, in the same setting: the figure for `CC1=C(Nc2ccc(S(N)(=O)=O)cc2)CCC1=O` (hydrate or solvate) [Example 01-06, 4-((2-methyl-3-oxocyclopent-1-en-1-yl)amino)benzenesulfonamide] is 245 to 247 °C; for `CC1=C(Nc2ccc(C#N)cc2)CCC1=O` (hydrate or solvate) [Example 01-07, 4-((2-methyl-3-oxocyclopent-1-en-1-yl)amino)benzonitrile] it is 204 to 206 °C. Still for that read-out and setting: the figure for `CC1=C(Nc2ccc(S(=O)(=O)Nc3ccccn3)cc2)CCC1=O` (hydrate or solvate) [Example 01-31, 4-((2-methyl-3-oxocyclopent-1-en-1-yl)amino)-N-(pyridin-2-yl)benzenesulfonamide] is 230 to 233 °C; for `CC1=C(NC2CCN(C(=O)OC(C)(C)C)CC2)CCC1=O` (hydrate or solvate) [Example 01-32, tert-Butyl 4-((2-methyl-3-oxocyclopent-1-en-1-yl)amino)piperidine-1-carboxylate] it is 189 to 191 °C; for `CC1=C(N[C@H]2CC[C@H](C(=O)O)CC2)CCC1=O` (hydrate or solvate) [Example 01-33, trans-(1R,4R)-4-((2-methyl-3-oxocyclopent-1-en-1-yl)amino)cyclo6hexane-carboxylic acid] it is 236 to 238 °C. In turn, `CC1=C(N[C@H]2CC[C@@H](C(=O)O)CC2)CCC1=O` (hydrate or solvate) [Example 01-34, cis-(1S,4S)-4-((2-methyl-3-oxocyclopent-1-en-1-yl)amino)cyclohexanecarboxylic acid] came in with a melting point of 233 to 235 °C. Same read-out and setting: the figure for `CC1=C(Nc2cccc(S(N)(=O)=O)c2)CCC1=O` (hydrate or solvate) [Example 01-45, 3((2-methyl-3-oxocyclopent-1-en-1-yl)amino)benzenesulfonamide] is 223 to 225 °C; for `CC1=C(Nc2cc(S(N)(=O)=O)ccc2Cl)CCC1=O` (hydrate or solvate) [Example 01-46, 4-chloro-3-((2-methyl-3-oxocyclopent-1-en-1-yl)amino)benzene-sulfonamide] it is 223 to 225 °C; for `CC1=C(Nc2cccc(C(=O)O)c2)CCC1=O` [Example 01-03, 3((2-methyl-3-oxocyclopent-1-en-1-yl)amino)benzoic acid] it is 236 to 238 °C. Still for that read-out and setting: the figure for `COC(=O)c1cccc(NC2=C(C)C(=O)CC2)c1` [Example 01-04, methyl 3-((2-methyl-3-oxocyclopent-1-en-1-yl)amino)benzoate] is 133 to 135 °C; for `CC(=O)c1ccc(NC2=C(C)C(=O)CC2)cc1` [Example 01-09, 3-((4-acetylphenyl)amino)-2-methylcyclopent-2-enone] it is 270 to 273 °C. `CC1=C(Nc2ccc(C(=O)O)c(Cl)c2)CCC1=O` [Example 01-10, 2-chloro-4((2-methyl-3-oxocyclopent-1-en-1-yl)amino)benzoic acid] registered a melting point of 239 to 241 °C. Besides, in data set [1], the IC50 was > 10 µM. Besides, in data set [2], the IC50 is > 10 µM. As to `COc1cc(C(=O)O)ccc1NC1=C(C)C(=O)CC1` [Example 01-12, 3-methoxy-4-((2-methyl-3-oxocyclopent-1-en-1-yl)amino)benzoic acid], the melting point is 231 to 234 °C. Further, in data set [1], the IC50 lay in the range of 1 to 10 µM. This compound also had an IC50 in data set [2] of 1 to 10 µM. `COC(=O)c1ccc(NC2=C(C)C(=O)CC2)cc1OC` [Example 01-13, methyl 2-methoxy-4-((2-methyl-3-oxocyclopent-1-en-1-yl)amino)benzoate] displayed a melting point of 193 to 196 °C. For the same compound, the IC50 in data set [1] lay within 1 to 10 µM. In data set [2], the IC50 was in the range of 1 to 10 µM. In turn, `CC1=C(Nc2ccc(C(=O)O)cc2C)CCC1=O` [Example 01-14, 3-methyl-4-((2-methyl-3-oxocyclopent-1-en-1-yl)amino)benzoic acid] had a melting point of 233 to 236 °C. The IC50 in data set [1] was 1 to 10 µM. In data set [2], the IC50 lay in the range of 1 to 10 µM.

Consider `CC1=C(Nc2ccc(C(=O)O)c(C)c2)CCC1=O` [Example 01-16, 2-methyl-4-((2-methyl-3-oxocyclopent-1-en-1-yl)amino)benzoic acid], for which the melting point lay within 213 to 216 °C. The IC50 in data set [1] was > 10 µM. The IC50 in data set [2] is > 10 µM. The compound `CC1=C(Nc2ccccc2C(N)=O)CCC1=O` [Example 01-18, 2-((2-methyl-3-oxocyclopent-1-en-1-yl)amino)benzamide] showed a melting point of 235 to 238 °C. Further, the IC50 in data set [1] was > 10 µM. Besides, the IC50 in data set [2] was > 10 µM.

As to `COC(=O)c1cc(Cl)ccc1NC1=C(C)C(=O)CC1` [Example 01-20, methyl 5-chloro-2-((2-methyl-3-oxocyclopent-1-en-1-yl)amino)benzoate], the melting point was 162 to 165 °C. Further, in data set [1], the IC50 is > 10 µM. Further, the IC50 in data set [2] is > 10 µM.

As for `COC(=O)c1ccc(NC2=C(C)C(=O)CC2)c(F)c1` [Example 01-21, methyl 3-fluoro-4((2-methyl-3-oxocyclopent-1-en-1-yl)amino)benzoate], the melting point lay within 198 to 201 °C. The IC50 in data set [1] lay in the range of 1 to 10 µM. In addition, the IC50 in data set [2] was > 10 µM. In the same order, the values of `COC(=O)c1ccc(NC2=C(C)C(=O)CC2)c(Br)c1` [Example 01-22, methyl 3-bromo-4((2-methyl-3-oxocyclopent-1-en-1-yl)amino)benzoate] are 155 to 158 °C, 1 to 10 µM and 1 to 10 µM. In the same order, the values of `CC1=C(Nc2cccc(Cl)c2C(=O)O)CCC1=O` [Example 01-23, 2-chloro-6((2-methyl-3-oxocyclopent-1-en-1-yl)amino)benzoic acid] are 277 to 280 °C, > 10 µM and > 10 µM. In the same order, the values of `COC(=O)c1ccc(Cl)cc1NC1=C(C)C(=O)CC1` [Example 01-24, methyl 4-chloro-2-((2-methyl-3-oxocyclopent-1-en-1-yl)amino)benzoate] are 167 to 170 °C, 1 to 10 µM and > 10 µM. For the compound `CC1=C(Nc2cc(C(=O)O)ccc2Cl)CCC1=O` [Example 01-25, 4-chloro-3((2-methyl-3-oxocyclopent-1-en-1-yl)amino)benzoic acid], the melting point is 272 to 275 °C. Moreover, the IC50 in data set [1] was 1 to 10 µM. Also, in data set [2], the IC50 is > 10 µM. On the same counts, the results for `CC1=C(Nc2cccc3ccccc23)CCC1=O` [Example 01-26, 2-methyl-3-(naphthalen-1-ylamino)cyclopent-2-enone] are 166 to 168 °C, 1 to 10 µM and 1 to 10 µM.

Consider `CC1=C(Nc2ccc3ccccc3c2)CCC1=O` [Example 01-27, 2-methyl-3-(naphthalen-2-ylamino)cyclopent-2-enone], for which the melting point fell in the range of 248 to 250 °C. Besides, in data set [1], the IC50 lay in the range of 1 to 10 µM. Moreover, the IC50 in data set [2] lay in the range of 1 to 10 µM. In turn, `CC1=C(Nc2ccc(CC(=O)O)cc2)CCCC1=O` [Example 01-38, 2-(4((2-methyl-3-oxocyclohex-1-en-1-yl)amino)phenyl)acetic acid] had a melting point of 215 to 219 °C. The same measure, in the same setting: the figure for `CC(=O)Nc1ccc(Cl)c(NC2=C(C)C(=O)CCC2)c1` [Example 01-47, N-(4-chloro-3-((2-methyl-3-oxocyclohex-1-en-1-yl)amino)phenyl)-acetamide] is 234 to 236 °C; for `CC1=C(Nc2ccc(C(=O)O)cc2)CCC1=O` [Example 02-01, 4((2-methyl-3-oxocyclopent-1-en-1-yl)amino)benzoic acid] it is 228 to 230 °C; for `CC1=C(Nc2ccc(C(=O)O)cc2Cl)CCC1=O` [Example 02-02, 3-chloro-4((2-methyl-3-oxocyclopent-1-en-1-yl)amino)benzoic acid] it is 226 to 230 °C. Compound `COc1cc(NC2=C(C)C(=O)CC2)ccc1C(=O)O` [Example 02-03, 2-methoxy-4((2-methyl-3-oxocyclopent-1-en-1-yl)amino)benzoic acid] came in with a melting point of 240 to 243 °C. The compound `CC1=C(Nc2ccccc2C(=O)O)CCC1=O` [Example 02-04, 2-((2-methyl-3-oxocyclopent-1-en-1-yl)amino)benzoic acid] yielded a melting point of 245 to 248 °C.

The compound `CC1=C(Nc2ccc(Cl)cc2C(=O)O)CCC1=O` [Example 02-05, 5-chloro-2-((2-methyl-3-oxocyclopent-1-en-1-yl)amino)benzoic acid] showed a melting point of 242 to 245 °C. The same measure, in the same setting: the figure for `CC1=C(Nc2ccc(C(=O)O)cc2F)CCC1=O` [Example 02-06, 3-fluoro-4((2-methyl-3-oxocyclopent-1-en-1-yl)amino)benzoic acid] is 210 to 213 °C. On the same count and under the same terms, the figure for `CC1=C(Nc2ccc(C(=O)O)cc2Br)CCC1=O` [Example 02-07, 3-bromo-4-((2-methyl-3-oxocyclopent-1-en-1-yl)amino)benzoic acid] is 246 to 248 °C; for `CC1=C(Nc2ccc(C(=O)O)cc2I)CCC1=O` [Example 02-08, 3-iodo-4-((2-methyl-3-oxocyclopent-1-en-1-yl)amino)benzoic acid] it is 263 to 264 °C.
